In ChEMBL document CHEMBL1156497, “EF24 induces G2/M arrest and apoptosis in cisplatin-resistant human ovarian cancer cells by increasing PTEN expression” (J Biol Chem, 2007):
Activity calls are given as the source filed them. The calls are words filed in the database; no cut-off is given here. Residues, ends and D or L forms follow the SMILES beside them. *: point of attachment. Cbz = O=C(OCc1ccccc1)*

Tests used:
A2780 [1] = assay: Induction of apoptosis in cisplatin-resistant human A2780 cells assessed as inhibition of PTEN degradation at 2 uM by immunoblot analysis; format: functional, cell-based
A2780 [2] = assay: Induction of apoptosis in cisplatin-resistant human A2780 cells assessed as decrease in phosphorylated Akt level at 2 uM after 12 hrs by immunoblot analysis; format: functional, cell-based
A2780 [3] = assay: Induction of apoptosis in cisplatin-resistant human A2780 cells assessed as accumulation at G2/M phase at 2 uM after 3 hrs by flow cytometry relative to control; format: functional
A2780 [4] = assay: Reversal of induction of apoptosis in cisplatin-resistant human A2780 cells assessed as inhibition of cleaved caspase-3 by immunoblot analysis in presence of PTEN-specific siRNA; format: functional, cell-based
A2780 [5] = assay: Induction of apoptosis in cisplatin-resistant human A2780 cells assessed as decrease in pERK1/2 level at 2 uM after 24 hrs by immunoblot analysis; format: functional, cell-based
A2780 [6] = assay: Cell viability of human cisplatin-sensitive human A2780 cells after 24 hrs by MTT assay; format: functional, cell-based; conditions: A2780, 24 h
CHO = assay: Cell viability of CHO cells after 24 hrs by MTT assay; format: functional, cell-based; conditions: Cricetulus griseus
A2780 [7] = assay: Induction of apoptosis in cisplatin-resistant human A2780 cells assessed as accumulation at G2/M phase at 2 uM after 6 hrs by flow cytometry relative to control; format: functional
A2780 [8] = assay: Induction of apoptosis in cisplatin-resistant human A2780 cells assessed as accumulation at G2/M phase at 2 uM after 12 hrs by flow cytometry relative to control; format: functional
A2780 [9] = assay: Induction of apoptosis in cisplatin-resistant human A2780 cells assessed as enhancement of p53 level at 2 uM by immunoblot analysis; format: functional, cell-based
A2780 [10] = assay: Induction of apoptosis in cisplatin-resistant human A2780 cells assessed as enhancement of p21 level at 2 uM by immunoblot analysis; format: functional, cell-based
A2780 [11] = assay: Induction of apoptosis in cisplatin-resistant human A2780 cells assessed as enhancement of p27 level at 2 uM by immunoblot analysis; format: functional, cell-based
A2780 [12] = assay: Induction of apoptosis in cisplatin-resistant human A2780 cells assessed as decrease in MDM2 level at 2 uM by immunoblot analysis; format: functional, cell-based; conditions: TDE = time-dependent effect
A2780 [13] = assay: Induction of apoptosis in cisplatin-resistant human A2780 cells assessed as decrease in CycB1 expression at 2 uM by immunoblot analysis; format: functional, cell-based; conditions: TDE = time-dependent effect
A2780 [14] = assay: Induction of apoptosis in cisplatin-resistant human A2780 cells assessed as decrease in CycA expression at 2 uM by immunoblot analysis; format: functional, cell-based; conditions: TDE = time-dependent effect
A2780 [15] = assay: Induction of apoptosis in cisplatin-resistant human A2780 cells assessed as decrease in CycD1 expression at 2 uM by immunoblot analysis; format: functional, cell-based; conditions: TDE = time-dependent effect
A2780 [16] = assay: Induction of apoptosis in cisplatin-resistant human A2780 cells assessed as decrease in Cdc2 expression at 2 uM by immunoblot analysis; format: functional, cell-based; conditions: TDE = time-dependent effect
A2780 [17] = assay: Induction of apoptosis in cisplatin-resistant human A2780 cells assessed as decrease in Cdc25C expression at 2 uM by immunoblot analysis; format: functional, cell-based; conditions: TDE = time-dependent effect
A2780 [18] = assay: Induction of apoptosis in cisplatin-resistant human A2780 cells assessed as change in Wee1 level at 2 uM by immunoblot analysis; format: functional, cell-based
A2780 [19] = assay: Induction of apoptosis in cisplatin-resistant human A2780 cells assessed as accumulation at sub-G1 phase at 2 uM after 24 hrs by flow cytometry relative to control; format: functional
A2780 [20] = assay: Induction of apoptosis in cisplatin-resistant human A2780 cells assessed as activation of caspase cascade at 2 uM after 6 to 24 hrs by Western blotting; format: functional, cell-based
A2780 [21] = assay: Reversal of induction of apoptosis in cisplatin-resistant human A2780 cells assessed as accumulation at sub-G1 phase at 2 uM after 24 hrs by flow cytometry in presence of z-VAD-fmk; format: functional, cell-based
A2780 [22] = assay: Induction of apoptosis in cisplatin-resistant human A2780 cells assessed as increase in FasL receptor expression at 2 uM by immunoblot analysis; format: functional, cell-based; conditions: TDE = time-dependent effect
A2780 [23] = assay: Induction of apoptosis in cisplatin-resistant human A2780 cells assessed as increase in Fas/CD95 receptor expression at 2 uM after 6 to 24 hrs by immunoblot analysis; format: functional, cell-based
A2780 [24] = assay: Induction of apoptosis in cisplatin-resistant human A2780 cells assessed as increase in TNFR1 expression at 2 uM after 6 to 24 hrs by immunoblot analysis; format: functional, cell-based
A2780 [25] = assay: Induction of apoptosis in cisplatin-resistant human A2780 cells assessed as inhibition of pPTEN degradation at 2 uM by immunoblot analysis; format: functional, cell-based
A2780 [26] = assay: Reversal of induction of apoptosis in cisplatin-resistant human A2780 cells assessed as suppression of PTEN by immunoblot analysis in presence of PTEN-specific siRNA; format: functional, cell-based
A2780 [27] = assay: Reversal of induction of apoptosis in cisplatin-resistant human A2780 cells assessed as increase of Akt phosphorylation by immunoblot analysis in presence of PTEN-specific siRNA; format: functional, cell-based
A2780 [28] = assay: Reversal of induction of apoptosis in cisplatin-resistant human A2780 cells assessed as decrease of p53 level by immunoblot analysis in presence of PTEN-specific siRNA; format: functional, cell-based
A2780 [29] = assay: Reversal of induction of apoptosis in cisplatin-resistant human A2780 cells assessed as decrease of p21 level by immunoblot analysis in presence of PTEN-specific siRNA; format: functional, cell-based
A2780 [30] = assay: Reversal of induction of apoptosis in cisplatin-resistant human A2780 cells assessed as inhibition of cleaved caspase-7 by immunoblot analysis in presence of PTEN-specific siRNA; format: functional, cell-based
A2780 [31] = assay: Reversal of induction of apoptosis in cisplatin-resistant human A2780 cells assessed as inhibition of cleaved PARP by immunoblot analysis in presence of PTEN-specific siRNA; format: functional, cell-based
A2780 [32] = assay: Cell viability of cisplatin-resistant human A2780 cells overexpressing PTEN at 2 uM after 24 hrs by MTT assay; format: functional, cell-based
A2780 [33] = assay: Induction of apoptosis in cisplatin-resistant human A2780 cells overexpressing PTEN assessed as inhibition of pAkt by Western blotting; format: functional, cell-based
A2780 [34] = assay: Induction of apoptosis in cisplatin-resistant human A2780 cells overexpressing PTEN assessed as enhancement of p53 by Western blotting; format: functional, cell-based
A2780 [35] = assay: Induction of apoptosis in cisplatin-resistant human A2780 cells overexpressing PTEN assessed as enhancement of p21 by Western blotting; format: functional, cell-based
A2780 [36] = assay: Induction of apoptosis in cisplatin-resistant human A2780 cells overexpressing PTEN assessed as enhancement of cleaved caspase-3 by Western blotting; format: functional, cell-based
A2780 [37] = assay: Induction of apoptosis in cisplatin-resistant human A2780 cells overexpressing PTEN assessed as enhancement of cleaved PARP by Western blotting; format: functional, cell-based
A2780 [38] = assay: Induction of apoptosis in cisplatin-resistant human A2780 cells assessed as enhancement of p53 phosphorylation at 2 uM by immunoblot analysis; format: functional, cell-based
A2780 [39] = assay: Induction of apoptosis in cisplatin-resistant human A2780 cells assessed as decrease in pERK1/2 level at 2 uM after 48 hrs by immunoblot analysis; format: functional, cell-based
A2780 [40] = assay: Cell viability of cisplatin-resistant human A2780 cells after 24 hrs by MTT assay; format: functional, cell-based; conditions: A2780, 24 h

**Q.** How did the Activity (A2780 [1]) turn out when `CC(C)C[C@@H](C=O)NC(=O)[C@H](CC(C)C)NC(=O)[C@H](CC(C)C)NC(=O)OCc1ccccc1` (Cbz-Leu-Leu-Leu-aldehyde) was run?
**A.** Its Activity is “Active”.

**Q.** How did the Activity (A2780 [2]) turn out when `O=c1cc(N2CCOCC2)oc2c(-c3ccccc3)cccc12` was run?
**A.** Its Activity is “Active”.

**Q.** Which results are given for `O=C1/C(=C/c2ccccc2F)CNC/C1=C\c1ccccc1F`?
**A.** Activity (A2780 [3]): 27.3%; Activity (A2780 [4]): Active; Activity (A2780 [2]): Active; Activity (A2780 [5]): Active; IC50 (A2780 [6]): 0.5 µM; IC50 (CHO): 4.6 µM; Activity (A2780 [7]): 36.8%; Activity (A2780 [8]): 57.5%; Activity (A2780 [9]): Active; Activity (A2780 [10]): Active; Activity (A2780 [11]): inactive; Activity (A2780 [12]): tde; Activity (A2780 [13]): tde; Activity (A2780 [14]): tde; Activity (A2780 [15]): tde; Activity (A2780 [16]): tde; Activity (A2780 [17]): tde; Activity (A2780 [18]): inactive; Activity (A2780 [19]): 35.3%; Activity (A2780 [20]): Active; Activity (A2780 [21]): Active; Activity (A2780 [22]): tde; Activity (A2780 [23]): inactive; Activity (A2780 [24]): inactive; Activity (A2780 [1]): Active; Activity (A2780 [25]): Active; Activity (A2780 [26]): Active; Activity (A2780 [27]): Active; Activity (A2780 [28]): Active; Activity (A2780 [29]): Active; Activity (A2780 [30]): Active; Activity (A2780 [31]): Active; Activity (A2780 [32]): Active; Activity (A2780 [33]): Active; Activity (A2780 [34]): Active; Activity (A2780 [35]): Active; Activity (A2780 [36]): Active; Activity (A2780 [37]): Active; Activity (A2780 [38]): Active; Activity (A2780 [39]): Active; IC50 (A2780 [40]): 0.65 µM
